Assay results taken from PubChem BioAssay AID179 (DTP/NCI, 2004).
Calls of active or inactive are those of the source.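 Rule for the calls: active = compounds giving half or more protection of infected cells from virus-caused growth loss, again on retest; inactive = the rest.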 Where a SMILES comes first, the peptide text is derived from it.

Test system: CEM cells HIV-1 protection, formazan growth assay
Assay: NCI AIDS Antiviral Assay
Conditions: for IC50: measured here: growth of uninfected CEM cells
Outline: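 Human CEM cells, uninfected and HIV-1-infected, exposed to five drug concentrations; growth measured by soluble formazan assay and scored as percent protection from infection, with protecting compounds retested.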

Row | SMILES | EC50 [µM] | IC50 [µM] | outcome
1 | Cc1cc2c(C(C)C)c(O)c(O)c(C=Nc3ccc(C(=O)NCC(=O)O)cc3)c2c(O)c1-c1c(C)cc2c(C(C)C)c(O)c(O)c(C=Nc3ccc(C(=O)NCC(=O)O)cc3)c2c1O | > 200 | 25.7 | 
2 | CC(NNC(=O)c1ccncc1)c1cccc(C(F)(F)F)c1 (stereo not given) | > 200 | 195 | 
3 | CC12CCC(=O)N1[C@@H](c1ccccc1)[C@@H](c1ccccc1)O2 (stereo not given in full) | > 234 | > 234 | 
4 | O=C1OC2C(O)C3CC1C2O3 (stereo not given) | > 1580 | > 1580 | 
5 | C/C(=N\NC(=S)N1CCCCC1)c1cccc(C)n1 | > 0.2 | 0.00617 | 
6 | N#CC(NNC(=O)c1ccccc1O)c1ccc(O)cc1 (stereo not given) | > 331 | 1.95 | 
7 | O=Nc1ccc(O)cc1Cc1ccccc1 | > 200 | 3.63 | 
8 | N#Cc1ncn(Cc2ccccc2)c1N | > 200 | > 200 | 
9 | CC(C)(C)N=C1CC(C)(C)c2ccccc2C(=Nc2ccccc2)S1 |  |  | inactive
10 | Cc1ccccc1NC(=O)C(=O)C(c1cnc2ccc([N+](=O)[O-])cc2n1)[N+](=O)[O-] (stereo not given) | > 240 | 126 | 
11 | COC(=O)[C@@H]1C=C[C@H](OC2OC(COC(C)=O)C(OC(C)=O)C(OC(C)=O)C2OC(C)=O)n2c(=O)c3ccccc3c(=O)n21 (stereo not given in full) | > 200 | 10.7 | 
12 | COc1ccc(C2=C/C(=C3\C(=O)Oc4ccccc4C3=O)SS2)cc1 | > 200 | > 200 | 
13 | N#CC(C#N)=Cc1ccc(SCc2ccc(Cl)cc2)cc1 | > 200 | 135 | 
14 | N#Cc1c(-c2ccccc2)cc(-c2ccc(N)cc2)[nH]c1=O | > 18.2 | > 18.2 | 
15 | S=c1[nH][nH]c(=S)s1 | 288 | 501 | 
16 | NC(=O)c1nnn(Cc2ccccc2)c1N | > 200 | > 200 | 
17 | CC(C)CC(NC(=O)C(Cc1ccc(O)cc1)NC(=O)C(CO)NC(=O)C(C)NC(=O)C(CO)NC(=O)C(CCC(=O)O)NC(=O)C(NC(=O)C(N)CCC(=O)O)C(C)C)C(=O)NC(CCCN=C(N)N)C(=O)NC(CCCCN)C(=O)O (stereo not given) (H-EVESASYLRK-OH; configuration not given here) |  |  | inactive
18 | O=C(O)c1ccccc1C(=O)NC(Cc1ccccc1)(C(=O)O)C(=O)O | > 200 | > 200 | 
19 | COC1(OC)c2no[n+]([O-])c2CCC1O (stereo not given) | > 200 | > 200 | 
20 | COc1cc(NC(=O)CC(C)=O)cc2c(C)cc(=O)n(C)c12 | > 200 | 117 | 
21 | COc1cccc2c1C(=O)c1c(O)c3c(c(O)c1C2=O)CC(O)(C(O)CO)CC3OC1CC(N2CCOCC2)C(O)C(C)O1 (stereo not given) | > 0.2 | 0.00355 | 
22 | COCCc1c(C)c(C#N)c2n(C)c3ccccc3n2c1=O | > 200 | > 200 | 

Row | SMILES | EC50 [µM] | IC50 [µM] | outcome
23 | CCC(=O)CCCC=C(c1cc(Cl)c(OC)c(CO)c1)c1cc(Cl)c(OC)c(CO)c1 | > 200 | 14.1 | 
24 | CN1C(=O)CC(Sc2ccccc2)c2cc(Cl)ccc21 (stereo not given) | > 200 | 15.8 | 
25 | O=[N+]([O-])c1c(F)c(F)c2c(c1F)N(CCCCCl)c1ccccc1S2 | > 200 | 7.94 | 
26 | CCn1c(O)c(C=Nc2ccccc2)s/c1=N/Nc1nc(-c2ccc(O)c(O)c2)cs1 | > 200 | 14.1 | 
27 | N[C@@H](CSSC[C@H](N)C(=O)OCc1ccccc1)C(=O)OCc1ccccc1 | > 200 | 83.2 | 
28 | Cc1ccc(/C=C2\CCCC(C(NO)c3ccc(C)cc3)C2=NO)cc1 (stereo not given) | > 5.75 | > 5.75 | 
29 | C/C(=N\NC(N)=S)c1ccc(C2CCCCC2)cc1 |  |  | inactive
30 | Oc1cc(F)cc2cccnc12 |  |  | inactive
31 | C#CC(C)(C)C(/C=N\NC(=O)O[C@H]1CC(C)CCC1C(C)C)CCC(=O)OC (stereo not given in full) | > 200 | 25.1 | 
32 | CCN(CCO)C(=O)C1(c2ccccc2)CCCCC1 | > 501 | 60.3 | 
33 | CCO[C@@H]1CCC(S(=O)c2ccc(C)cc2)=CO1 (stereo not given in full) | > 200 | > 200 | 
34 | O=C1CN(CCc2ccccc2)CC(=O)N2C(c3ccccc3)CCCN12 (stereo not given) |  |  | inactive
35 | Cc1cc2c(c(C(N)=O)c1C)-c1cccc(F)c1C2=O |  |  | inactive
36 | N#CC1=C(N)OC(c2ccc([N+](=O)[O-])cc2)C1(C#N)C#N (stereo not given) | > 200 | 10 | 
37 | COC(OC)c1cc2c(cc1C=O)OCO2 |  |  | inactive
38 | COC1=C(C(=O)OC(C)(C)C)C23CCCCCCCCCCC2(C(C(=O)OC(C)(C)C)=C(OC)C3C(=O)OC(C)(C)C)C1C(=O)OC(C)(C)C (stereo not given) | > 25.1 | 23.4 | 
39 | O=C1CCc2nc3ccccc3c(=O)n21 | > 1260 | > 1260 | 
40 | O=c1[nH]nc(NCCc2ccccc2)c2nnn(Cc3ccccc3)c12 | > 200 | > 200 | 
41 | CC(=O)O[C@]1(C(C)=O)CC[C@H]2[C@@H]3C[C@H](C)C4=CCCC[C@]4(C)[C@H]3CC[C@@]21C | > 100 | > 100 | 
42 | COc1nc(NC2OC(COC(C)=O)C(OC(C)=O)C(OC(C)=O)C2OC(C)=O)c(-c2csc(N)n2)c(=O)n1C (stereo not given) | > 6.17 | > 6.17 | 
43 | CCOC(=O)CCC(NC(=O)c1ccc(Nc2cnc3cc(C(F)(F)F)ccc3n2)cc1)C(=O)OCC (stereo not given) | > 200 | 191 | 
44 | CCOC(=O)C1=C(C)N2CCCOC2(C)C(C(=O)OC)C1c1cccc([N+](=O)[O-])c1 (stereo not given) | > 200 | 69.2 | 

Row | SMILES | EC50 [µM] | IC50 [µM] | outcome
45 | O=C(Nc1ccccc1SC(/C=C/NNC1=NC(c2ccccc2)C(c2ccccc2)=NN1)c1ccccc1)c1ccc(Cl)cc1Cl (stereo not given) | > 10.7 | > 10.7 | 
46 | O=C(Cc1ccccc1)N/N=C(/CCN1CCCC1)CC(c1ccccc1)c1c(O)c2ccccc2oc1=O (stereo not given) |  |  | inactive
47 | O=C1N(C2CCCCC2)C(=O)N1C1CCCCC1 | 8.32 | 17.8 | 
48 | O=[As](O)(O)c1ccc(Cl)cc1Cl | > 200 | 95.5 | 
49 | O=[N+]([O-])c1c(O)c2nonc2c2nn(-c3ccccc3)nc12 | > 200 | 120 | 
50 | C#CC1(O)CCC2[C@@H]3CCc4cc(Oc5nc(F)nc(-c6c7ccccc7c(SCC)n6CCC)n5)ccc4C3CC[C@@]21C (stereo not given in full) | > 6.17 | > 6.17 | 
51 | C=CC(C1=CC(=O)C(OC)=CC1=O)c1ccc(OC)cc1 (stereo not given) |  |  | inactive
52 | COC(=O)CC1COC(C)(C)O1 (stereo not given) |  |  | inactive
53 | Cc1cc(=O)[nH]c(NN2C(Cl)C(=O)C2c2cccc(Cl)c2)n1 (stereo not given) | > 200 | 30.2 | 
54 | O=C1OC(=O)c2cc3c(cc21)C(=O)O/C3=C\c1ccccc1 |  |  | inactive
55 | CCOC(=O)c1cc(Cl)cc2c(=O)c3c(O)c4[nH]c5c(C(=O)OCC)cc(Cl)cc5c(=O)c4c(O)c3[nH]c12 | > 100 | 4.9 | 
56 | O=S1(=O)C[C@H](O)[C@H](O)CS1 | 8.32 | 75.9 | 
57 | CCOC(=O)N1CCN(c2ccc3c(C)cc(C)nc3n2)CC1 | > 200 | > 200 | 
58 | CC(=O)c1ccc2c3c(ccc([N+](=O)[O-])c13)C(=O)OC2=O | > 200 | 30.9 | 
59 | O=C(O)C1=CC(=C(c2ccc(O)c(C(=O)O)c2)c2ccc(O)c(C(=O)O)c2)C=C(Cc2ccc(O)c(C(=O)O)c2)C1=O | > 1200 | 195 | 
60 | OCCNNCCO | > 200 | > 200 | 
61 | N#CC1=C(C#N)/C(=C(\C#N)C(C#N)C#N)N=C1N | > 100 | 37.2 | 
62 | CC1CN=C(NS(=O)(=O)c2cc(C(=O)Nc3ccc(Cl)cc3)c(Cl)cc2S)NN1 (stereo not given) | > 200 | 14.8 | 
63 | ClC1(c2ccccc2)c2ccc(Br)cc2-c2cc(Br)ccc21 | > 200 | 5.75 | 
64 | O=C1C2=Cc3ccccc3OC2(O)Oc2cc(O)cc(O)c21 (stereo not given) | > 200 | 91.2 | 
65 | N#Cc1ccc(/C=C(/C(=O)c2ccccc2)c2ccccc2)cc1 | > 17 | 9.55 | 
66 | O=C(/C=C/c1ccc(OCc2cccc(Cl)c2)cc1)NO | > 200 | 25.7 | 

Row | SMILES | EC50 [µM] | IC50 [µM] | outcome
67 | C=C1C=CN(C(C)=O)C(OC(C)=O)C1SC(C)(C)C (stereo not given) | > 200 | 57.5 | 
68 | Cc1cc([N+](=O)[O-])ccc1N=NC(=O)NNc1ccc([N+](=O)[O-])cc1C | > 200 | 33.9 | 
69 | C/C(=N\NC(=S)N(C)C)c1cccnn1 | > 200 | 0.355 | 
70 | Cn1c(=O)c(=O)n(C)c2nc3ccccc3nc21 | > 4.27 | > 4.27 | 
71 | CCOC(=O)C/C=C\S[C@@H]1[C@H](NC(=O)COc2ccccc2)C(=O)N1C(C(=O)OCc1ccc([N+](=O)[O-])cc1)=C(C)C | > 4.37 | > 4.37 | 
72 | COC(=O)c1cc(Cc2cc(C(=O)OC)c(OC)c(C(F)(F)F)c2)cc(C(F)(F)F)c1OC | > 200 | 25.7 | 
73 | CCCCCCCCCCCC(=O)OCC1OC(n2cc(F)c(=O)[nH]c2=O)C(NC(=O)OCc2ccccc2)C(O)C1O (stereo not given) | > 30.9 | > 30.9 | 
74 | COc1ccc2c(c1)C(=O)C13CC(C(=O)OCc4ccccc4)C(OC(C)=O)(CCC21)C3 (stereo not given) | > 72.4 | > 72.4 | 
75 | O=[N+]([O-])c1ccc2[nH]ncc2c1Cl | > 200 | 9.77 | 
76 | COc1ccc(-c2cc(-c3ccccc3)nc3c2CC(=O)Nc2ccccc2-3)cc1OC | > 100 | 15.5 | 
77 | O=c1[nH]cnc2c1nnn2CCCCCCCCCCCCn1nnc2c(=O)[nH]cnc21 | > 200 | 24 | 
78 | CCCCCCCCCCCCC(=O)CCCCC(=O)O |  |  | inactive
79 | N=C(N)c1ccc(C(NC(=O)CNS(=O)(=O)c2ccc3ccccc3c2)P(=O)(Oc2ccccc2)Oc2ccccc2)cc1 (stereo not given) | 0.741 | 7.08 | 
80 | COc1ccc(-n2c(=O)c3[nH]cnc3n(-c3ccc(OC)cc3)c2=S)cc1 | > 200 | > 200 | 
81 | O=C(c1ccccc1)n1c2ccc(Br)cc2c2nc3ccccc3nc21 | > 50.1 | > 50.1 | 
82 | O=c1[nH]nnc2cc(Cl)ccc12 | > 200 | > 200 | 
83 | O=C(Nc1ccccc1)N1CC2(CN1)CNN(C(=O)Nc1ccccc1)C2 | > 182 | > 182 | 
84 | COc1nc(N)c(C#N)c(C#N)c1C#N | > 200 | > 200 | 
85 | C#Cc1ccccc1N1C(=O)C=CC1=O | > 251 | > 251 | 
86 | NC1CC(=O)c2c(Cl)sc(Cl)c21 (stereo not given) | > 200 | 3.47 | 
